Our source for the IC50 values is patent US20160083400A1, “TRICYCLIC GUANIDINE DERIVATIVE” (Sunovion Pharmaceuticals Inc., priority 2014, published 2016).

This experiment concerns the target PDE1B (Homo sapiens, UniProt Q01064). The experiment is described as follows: In vitro HTRF PDE1 inhibition assay (PDE1B). The class given is biochemical. The following applies: 100 nM cyclic GMP, calmodulin, 45 minutes at 37° C. (In general: TR-FRET usually uses a lanthanide donor and a delayed reading to cut background.)

Sequence of PDE1B (Q01064 whole entry): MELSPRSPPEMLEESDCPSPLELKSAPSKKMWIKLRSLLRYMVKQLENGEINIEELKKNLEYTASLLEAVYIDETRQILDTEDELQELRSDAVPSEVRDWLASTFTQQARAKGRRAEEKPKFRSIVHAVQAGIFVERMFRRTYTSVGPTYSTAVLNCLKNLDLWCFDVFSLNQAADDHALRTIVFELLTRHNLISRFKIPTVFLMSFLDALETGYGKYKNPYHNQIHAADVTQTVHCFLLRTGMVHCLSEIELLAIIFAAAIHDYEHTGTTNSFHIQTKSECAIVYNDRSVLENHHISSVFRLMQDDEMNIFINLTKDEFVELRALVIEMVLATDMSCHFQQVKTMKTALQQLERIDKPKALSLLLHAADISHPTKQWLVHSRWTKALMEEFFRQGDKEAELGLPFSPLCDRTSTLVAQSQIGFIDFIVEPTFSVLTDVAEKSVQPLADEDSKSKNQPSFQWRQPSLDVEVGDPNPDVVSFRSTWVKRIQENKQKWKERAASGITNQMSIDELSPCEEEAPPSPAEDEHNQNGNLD

As a reminder, the IC50 is the concentration at which inhibition is half-maximal. On to `O=c1c2cnn(C3CCCC3)c2nc2n1CCC(c1ccncc1)N2` (stereo not drawn) [Example 3], for which the half-inhibitory concentration (IC50) is 1 to 10 µM. In turn, `COc1cccc(C2CCn3c(nc4c(cnn4C4CCCC4)c3=O)N2)c1` (stereo not drawn) [Example 5] returned a half-maximal inhibitory concentration (IC50) of 10 to 100 µM. The result for `COc1cc(C2CCn3c(nc4c(cnn4C(C)C)c3=O)N2)ccc1F` (stereo not drawn) [Example 11] reads < 1 µM. The result for `Cc1ccc(C2CCn3c(nc4c(cnn4C(C)C)c3=O)N2)cn1` (stereo not drawn) [Example 12] reads 1 to 10 µM. With `COc1ccc(CC2CCn3c(nc4c(cnn4C(C)C)c3=O)N2)cc1` (stereo not drawn) [Example 13], the 50% inhibitory concentration (IC50) is < 1 µM. `O=c1c2cnn(C3CC3)c2nc2n1CCC(c1ccc(Cl)cc1)N2` (stereo not drawn) [Example 15]: the half-inhibitory concentration (IC50) was < 1 µM.

Consider `COc1ccc(CC2CCn3c(nc4c(cnn4C4CCOCC4)c3=O)N2)cc1` (stereo not drawn) [Example 16], for which the IC50 is < 1 µM. `O=c1c2cnn(C3CCOCC3)c2nc2n1CCC(Cc1ccc(Cl)cc1)N2` (stereo not drawn) [Example 17]: the half-inhibitory concentration (IC50) is < 1 µM. Compound `Cc1ncc(C2CCn3c(nc4c(cnn4C(C)C)c3=O)N2)cn1` (stereo not drawn) [Example 25] came in with an IC50 of 1 to 10 µM. The result for `Cc1cc(C2CCn3c(nc4c(cnn4C(C)C)c3=O)N2)ccn1` (stereo not drawn) [Example 26] reads 1 to 10 µM; that for `CC(C)n1ncc2c(=O)n3c(nc21)N[C@H](c1ccc(Cl)cc1)CC3` [Example 28], 1 to 10 µM. The result for `CC(C)n1ncc2c(=O)n3c(nc21)NC(c1cccc(Cl)c1)CC3` (stereo not drawn) [Example 30] reads < 1 µM; that for `CC(C)n1ncc2c(=O)n3c(nc21)NC(c1ccccc1Cl)CC3` (stereo not drawn) [Example 31], < 1 µM. With `CC(C)n1ncc2c(=O)n3c(nc21)NC(c1ccccc1)CC3` (stereo not drawn) [Example 32], the half-maximal inhibitory concentration (IC50) is < 1 µM. The result for `Cc1ccc(CC2CCn3c(nc4c(cnn4C(C)C)c3=O)N2)cn1` (stereo not drawn) [Example 33] reads 1 to 10 µM; that for `CCn1ncc2c(=O)n3c(nc21)NC(c1ccc(Cl)cc1)CC3` (stereo not drawn) [Example 34], < 1 µM; that for `CCCn1ncc2c(=O)n3c(nc21)NC(c1ccc(Cl)cc1)CC3` (stereo not drawn) [Example 35], < 1 µM.

As for `CCC(CC)n1ncc2c(=O)n3c(nc21)NC(c1ccc(Cl)cc1)CC3` (stereo not drawn) [Example 36], the half-maximal inhibitory concentration (IC50) is < 1 µM. The result for `O=c1c2cnn(CC3CC3)c2nc2n1CCC(c1ccc(Cl)cc1)N2` (stereo not drawn) [Example 37] reads < 1 µM; that for `O=c1c2cnn(CC(F)(F)F)c2nc2n1CCC(c1ccc(Cl)cc1)N2` (stereo not drawn) [Example 38], < 1 µM; that for `O=c1c2cnn(C3CCC(F)(F)CC3)c2nc2n1CCC(c1ccc(Cl)cc1)N2` (stereo not drawn) [Example 39], 1 to 10 µM. The result for `O=c1c2cnn(C3CCCC3)c2nc2n1CC[C@H](c1ccc(Cl)cc1)N2` [Example 40] reads < 1 µM.

As for `O=c1c2cnn(C3CCCC3)c2nc2n1CC[C@@H](c1ccc(Cl)cc1)N2` [Example 41], the IC50 was in the range of 1 to 10 µM.

The compound `Cc1ccc(CC2CCn3c(nc4c(cnn4C4CCCC4)c3=O)N2)cn1` (stereo not drawn) [Example 42] came in with an IC50 of 1 to 10 µM. With `O=c1c2cnn(C3CCOCC3)c2nc2n1CCC(c1ccc(Cl)cc1)N2` (stereo not drawn) [Example 43], the half-maximal inhibitory concentration (IC50) is < 1 µM. The result for `O=c1c2cnn(C3CCC3)c2nc2n1CCC(c1ccc(Cl)cc1)N2` (stereo not drawn) [Example 44] reads < 1 µM. Turning to `CC(C)(C)n1ncc2c(=O)n3c(nc21)NC(c1ccc(Cl)cc1)CC3` (stereo not drawn) [Example 45], the half-inhibitory concentration (IC50) lay in the range of 10 to 100 µM. The result for `COc1cccc(C2CCn3c(nn4c(C(C)C)ncc4c3=O)N2)c1` (stereo not drawn) [Example 47] reads < 1 µM; that for `COc1cc(C2CCn3c(nn4c(C(C)C)ncc4c3=O)N2)ccc1F` (stereo not drawn) [Example 48], < 1 µM. The result for `CC(C)c1ncc2c(=O)n3c(nn12)N[C@H](c1ccc(Cl)cc1)CC3` [Example 49] reads 1 to 10 µM; that for `CC(C)c1ncc2c(=O)n3c(nn12)NC(c1ccc(C(F)(F)F)cc1)CC3` (stereo not drawn) [Example 50], < 1 µM. With `CC(C)c1ncc2c(=O)n3c(nn12)NC(c1ccc(Cl)cn1)CC3` (stereo not drawn) [Example 51], the IC50 was < 1 µM. `CC(C)c1ncc2c(=O)n3c(nn12)NC(C1CCCCC1)CC3` (stereo not drawn) [Example 53]: the 50% inhibitory concentration (IC50) was < 1 µM.
